Data on 37 compounds can be found in US11597702B2, “Substituted pyrazoles FFA4/GPR120 receptor agonists” (AXXAM S.P.A., priority 2018, dated 2023).

Structures are written as SMILES.

In the test the target is T1, GPR120 (Homo sapiens, UniProt Q5NUL3).
T1 construct: expressed in transfected cells; host or cells: CHO mitoPhotinaGPR120 cells
T1 sequence (Q5NUL3 1-361): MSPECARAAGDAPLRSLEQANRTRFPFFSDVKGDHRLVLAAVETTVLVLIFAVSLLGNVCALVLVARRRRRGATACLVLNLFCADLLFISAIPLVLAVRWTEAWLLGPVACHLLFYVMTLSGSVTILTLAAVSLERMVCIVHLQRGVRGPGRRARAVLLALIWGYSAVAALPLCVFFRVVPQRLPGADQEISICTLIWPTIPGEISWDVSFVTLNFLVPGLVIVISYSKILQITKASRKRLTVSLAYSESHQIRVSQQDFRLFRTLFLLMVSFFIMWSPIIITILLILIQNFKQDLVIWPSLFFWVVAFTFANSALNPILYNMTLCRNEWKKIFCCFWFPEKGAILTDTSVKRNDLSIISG
Briefly: GPR120 agonism in CHO mitoPhotinaGPR120 cell based assay with fluorescent (Fluo-8 calcium, FLIPRTetra) readout, Agonist Mode, dose response. The note with it: CHO mitoPhotinaGPR120 cells, Fluo-8 No Wash Ca2+ dye, dose response in quadruplicate, 0.0033% fatty acid free BSA. On the procedure: Compounds of the invention were tested for GPR120 agonism in a CHO mitoPhotinaGPR120 cell based assay with fluorescent readout in Agonist Mode in dose response in quadruplicate with intra-plate modality.
Twenty (20) h after seeding, growth medium was manually removed and cells were starved in the presence of 25 μL/w of Standard Tyrode's Buffer. After 3 h, cells were loaded with 20 μL/w of 0.5× Fluo-8 No Wash (AAT Bioquest, Inc.) Ca2+ sensitive dye prepared in Standard Tyrode's Buffer. Cells were incubated for 1 h at room temperature in the dark. Ten (10) μL/w 3× of controls and compounds were diluted in Standard Tyrode's Buffer+0.01% fatty acid free BSA (final concentration=0.0033%) and injected at the FLIPRTetra®, recording the kinetic calcium traces for 3 minutes. Standard Tyrode's buffer composition: 5 mM KCl, 130 mM NaCl, 2 mM CaCl2), 5 mM NaHCO3, 1 mM MgCl2, 20 mM HEPES, pH7.4.
With `Cc1cc(CO)ccc1OCc1c(C#N)c(C)nn1-c1ccccc1` [Example 16, 5-[[4-(hydroxymethyl)-2-methyl-phenoxy]methyl]-3-methyl-1-phenyl-pyrazole-4-carbonitrile], the concentration for a half-maximal effect (EC50) (as a rule, the midpoint of the concentration-response curve) was determined as 0.86 µM. Then `Cc1cc(CO)cc(C)c1OCc1c(C#N)c(C)nn1-c1ccccc1` [Example 17, 5-[[4-(hydroxymethyl)-2,6-dimethyl-phenoxy]methyl]-3-methyl-1-phenyl-pyrazole-4-carbonitrile], with 1.01 µM; and `Cc1nn(-c2ccccc2)c(COc2ccc(F)cc2)c1C#N` [Example 18, 5-[(4-fluorophenoxy)methyl]-3-methyl-1-phenyl-pyrazole-4-carbonitrile], with 1.41 µM. As to `Cc1nn(-c2ccccc2)c(COc2ccc(CO)cc2F)c1C#N` [Example 20, 5-[[2-fluoro-4-(hydroxymethyl)phenoxy]methyl]-3-methyl-1-phenyl-pyrazole-4-carbonitrile], the EC50 was determined as 1.77 µM. Turning to `Cc1nn(-c2ccccc2)c(COc2c(F)cc(CO)cc2F)c1C#N` [Example 21, 5-[[2,6-difluoro-4-(hydroxymethyl)phenoxy]methyl]-3-methyl-1-phenyl-pyrazole-4-carbonitrile], the EC50 was 1.33 µM.

For `Cc1nn(-c2ccccc2)c(COc2ccccc2CO)c1C#N` [Example 23, 5-[[2-(hydroxymethyl)phenoxy]methyl]-3-methyl-1-phenyl-pyrazole-4-carbonitrile], the concentration giving a half-maximal response (EC50) was found to be 8.13 µM.

For `Cc1nn(-c2ccccc2)c(COc2cccc(CO)c2)c1C#N` [Example 24, 5-[[3-(hydroxymethyl)phenoxy]methyl]-3-methyl-1-phenyl-pyrazole-4-carbonitrile], the concentration giving a half-maximal response (EC50) was 7.31 µM. Then `Cc1cccc(C)c1OCc1c(C#N)c(C)nn1-c1ccccc1` [Example 25, 5-[(2,6-dimethylphenoxy)methyl]-3-methyl-1-phenyl-pyrazole-4-carbonitrile], with 0.94 µM; and `Cc1ccccc1OCc1c(C#N)c(C)nn1-c1ccccc1` [Example 26, 3-methyl-5-[(2-methylphenoxy)methyl]-1-phenyl-pyrazole-4-carbonitrile], with 0.58 µM. For the compound `Cc1nn(-c2ccccc2)c(COc2ccc(CC#N)cc2)c1C#N` [Example 29, 5-[[4-(cyanomethyl)phenoxy]methyl]-3-methyl-1-phenyl-pyrazole-4-carbonitrile], the concentration for a half-maximal effect (EC50) turned out to be 4.22 µM.

Turning to `Cc1cccc(OCc2c(C#N)c(C)nn2-c2ccccc2)c1C` [Example 30, 5-[(2,3-dimethylphenoxy)methyl]-3-methyl-1-phenyl-pyrazole-4-carbonitrile], the EC50 was 0.71 µM. Next, `Cc1nn(-c2ccccc2)c(COc2c(F)cc(CCCO)cc2F)c1C#N` [Example 32, 5-[[2,6-difluoro-4-(3-hydroxypropyl)phenoxy]methyl]-3-methyl-1-phenyl-pyrazole-4-carbonitrile]: 0.09 µM. For the compound `Cc1nn(-c2ccccc2)c(COc2ccc(CCO)cc2F)c1C#N` [Example 33, 5-[[2-fluoro-4-(2-hydroxyethyl)phenoxy]methyl]-3-methyl-1-phenyl-pyrazole-4-carbonitrile], the EC50 is 1.27 µM. Turning to `Cc1nn(-c2ccccc2)c(COc2ccc(CCCO)cc2)c1C#N` [Example 35, 5-[[4-(3-hydroxypropyl)phenoxy]methyl]-3-methyl-1-phenyl-pyrazole-4-carbonitrile], the EC50 worked out at 0.15 µM.

`CCc1ccccc1OCc1c(C#N)c(C)nn1-c1ccccc1` [Example 39, 5-[(2-ethylphenoxy)methyl]-3-methyl-1-phenyl-pyrazole-4-carbonitrile]: the EC50 turned out to be 7.24 µM. `Cc1nn(-c2ccccc2)c(COc2cccc(F)c2)c1C#N` [Example 40, 5-[(3-fluorophenoxy)methyl]-3-methyl-1-phenyl-pyrazole-4-carbonitrile]: the 50% effective concentration (EC50) is 0.79 µM. Next, `Cc1nn(-c2ccccc2)c(COc2ccc(CCCO)cc2F)c1C#N` [Example 42, 5-[[2-fluoro-4-(3-hydroxypropyl)phenoxy]methyl]-3-methyl-1-phenyl-pyrazole-4-carbonitrile]: 0.49 µM; `Cc1nn(-c2ccccc2)c(COc2ccc(CC(=O)NCCO)cc2)c1C#N` [Example 49, 2-[4-[(4-cyano-5-methyl-2-phenyl-pyrazol-3-yl)methoxy]phenyl]-~{N}-(2-hydroxyethyl)acetamide]: 18.4 µM. Next, `COc1cc(CCCO)ccc1OCc1c(C#N)c(C)nn1-c1ccccc1` [Example 53, 5-[[4-(3-hydroxypropyl)-2-methoxy-phenoxy]methyl]-3-methyl-1-phenyl-pyrazole-4-carbonitrile]: 0.52 µM. As to `Cc1nn(-c2ccccc2)c(COc2ccc(C(C)O)cc2)c1C#N` (stereo not shown) [Example 54, 5-[[4-(1-hydroxyethyl)phenoxy]methyl]-3-methyl-1-phenyl-pyrazole-4-carbonitrile], the EC50 was determined as 18.4 µM. In the case of `COCc1ccc(OCc2c(C#N)c(C)nn2-c2ccccc2)cc1` [Example 55, 5-[[4-(methoxymethyl)phenoxy]methyl]-3-methyl-1-phenyl-pyrazole-4-carbonitrile], the concentration giving a half-maximal response (EC50) worked out at 2.03 µM. `COCCc1ccc(OCc2c(C#N)c(C)nn2-c2ccccc2)cc1` [Example 56, 5-[[4-(2-methoxyethyl)phenoxy]methyl]-3-methyl-1-phenyl-pyrazole-4-carbonitrile]: the concentration giving a half-maximal response (EC50) is 5 µM. On to `Cc1nn(-c2ccccc2)c(CSc2ccc(CCO)cc2)c1C#N` [Example 59, 5-[[4-(2-hydroxyethyl)phenyl]sulfanylmethyl]-3-methyl-1-phenyl-pyrazole-4-carbonitrile], for which the EC50 is 2.63 µM. In the case of `Cc1nn(-c2ccccc2)c(COc2ccc3n[nH]cc3c2)c1C#N` [Example 61, 5-(2~{H}-indazol-5-yloxymethyl)-3-methyl-1-phenyl-pyrazole-4-carbonitrile], the EC50 worked out at 1.02 µM. `Cc1nn(-c2ccccc2)c(COc2ccc3ccncc3c2)c1C#N` [Example 62, 5-(7-isoquinolyloxymethyl)-3-methyl-1-phenyl-pyrazole-4-carbonitrile]: the EC50 is 2.6 µM. As for `Cc1nn(-c2ccccc2)c(COc2cccc3cccnc23)c1C#N` [Example 63, 3-methyl-1-phenyl-5-(8-quinolyloxymethyl)pyrazole-4-carbonitrile], the half-maximal effective concentration (EC50) was found to be 16.4 µM.

On to `Cc1nn(-c2ccccc2)c(COc2cccnc2C#N)c1C#N` [Example 64, 3-[(4-cyano-5-methyl-2-phenyl-pyrazol-3-yl)methoxy]pyridine-2-carbonitrile], for which the EC50 was 19.1 µM. For the compound `Cc1nn(-c2ccccc2)c(COc2cccnc2F)c1C#N` [Example 65, 5-[(2-fluoro-3-pyridyl)oxymethyl]-3-methyl-1-phenyl-pyrazole-4-carbonitrile], the half-maximal effective concentration (EC50) stood at 3.56 µM. For the compound `Cc1ccncc1OCc1c(C#N)c(C)nn1-c1ccccc1` [Example 68, 3-methyl-5-[(4-methyl-3-pyridyl)oxymethyl]-1-phenyl-pyrazole-4-carbonitrile], the EC50 came out at 8.32 µM. Next, `Cc1ccc(OCc2c(C#N)c(C)nn2-c2ccccc2)cn1` [Example 69, 3-methyl-5-[(6-methyl-3-pyridyl)oxymethyl]-1-phenyl-pyrazole-4-carbonitrile]: 9.82 µM; `Cc1ccnc(C)c1OCc1c(C#N)c(C)nn1-c1ccccc1` [Example 70, 5-[(2,4-dimethyl-3-pyridyl)oxymethyl]-3-methyl-1-phenyl-pyrazole-4-carbonitrile]: 2.3 µM; `Cc1nn(-c2ccccc2)c(COc2ccc(F)nc2F)c1C#N` [Example 71, 5-[(2,6-difluoro-3-pyridyl)oxymethyl]-3-methyl-1-phenyl-pyrazole-4-carbonitrile]: 5.69 µM. Turning to `Cc1cccc(-n2nc(C)c(C#N)c2COc2ccc(CCO)cc2)c1` [Example 73, 5-[[4-(2-hydroxyethyl)phenoxy]methyl]-3-methyl-1-(m-tolyl)pyrazole-4-carbonitrile], the concentration giving a half-maximal response (EC50) turned out to be 1.98 µM. For `Cc1ccc(-n2nc(C)c(C#N)c2COc2ccc(CCO)cc2)cc1` [Example 74, 5-[[4-(2-hydroxyethyl)phenoxy]methyl]-3-methyl-1-(p-tolyl)pyrazole-4-carbonitrile], the EC50 is 0.49 µM. Take `Cc1nn(-c2cccc(Cl)c2)c(COc2ccc(CCO)cc2)c1C#N` [Example 75, 1-(3-chlorophenyl)-5-[[4-(2-hydroxyethyl)phenoxy]methyl]-3-methyl-pyrazole-4-carbonitrile]: the EC50 was 4.61 µM. `Cc1nn(-c2ccc(Cl)cc2)c(COc2ccc(CCO)cc2)c1C#N` [Example 76, 1-(4-chlorophenyl)-5-[[4-(2-hydroxyethyl)phenoxy]methyl]-3-methyl-pyrazole-4-carbonitrile]: the EC50 was 0.76 µM. Next, `Cc1nn(-c2cccc(C(F)(F)F)c2)c(COc2ccc(CCO)cc2)c1C#N` [Example 77, 5-[[4-(2-hydroxyethyl)phenoxy]methyl]-3-methyl-1-[3-(trifluoromethyl)phenyl]pyrazole-4-carbonitrile]: 9.03 µM.
